Measured values as given in PubChem BioAssay AID190 (DTP/NCI, 2004).
Where “and” joins values, the source holds several entries; their conditions need not be identical. Equal entries are not always repeated. Inconclusive results and toxic doses are left out.

Test system: AKR/Lw mice, AKR lymphoma ip, median survival T/C
Assay: NCI In Vivo Anticancer Drug Screen. Data for tumor model Lymphoma AKR (Transplanted) (intraperitoneal) in AKR/Lw mice
Conditions: endpoint: median survival time, higher = longer survival
Description: The antitumor activity of compounds was measured in mice bearing transplantable tumors. Survival or tumor size were measured and the results are expressed as the measurement made in the treated group (T) divided by the measurement made in the vehicle treated control group (C). The tumor model used in this assay is Lymphoma AKR (Transplanted) (intraperitoneal) in AKR/Lw mice

For `CC1CCC(NC(=O)N(CCCl)N=O)CC1` (centres undefined), the T/C (dose: 1.25 mg/kg/injection, schedule: Q14DX003 (ip), vehicle: saline with Tween-80) was 112 % of control, the T/C (dose: 2.0 mg/kg/injection, schedule: Q04DX003 (ip), vehicle: saline with Tween-80) was 106 % of control and the T/C (dose: 2.0 mg/kg/injection, schedule: Q07DX004 (ip), vehicle: saline with Tween-80) was 113 % of control. For the same molecule, the T/C (dose: 2.5 mg/kg/injection, schedule: Q01DX006 (ip), vehicle: saline with Tween-80) was 93 % of control, the T/C (dose: 2.5 mg/kg/injection, schedule: Q09DX002 (ip), vehicle: saline with Tween-80) was 102 % of control and the T/C (dose: 2.5 mg/kg/injection, schedule: Q10DX002 (ip), vehicle: saline with Tween-80) was 108 % of control. The T/C (dose: 2.5 mg/kg/injection, schedule: Q14DX003 (ip), vehicle: saline with Tween-80) was 108 % of control and 112 % of control (2×), the T/C (dose: 3.0 mg/kg/injection, schedule: Q01DX001 (ip), vehicle: saline with Tween-80) was 111 % of control and the T/C (dose: 4.4 mg/kg/injection, schedule: Q04DX003 (ip), vehicle: saline with Tween-80) was 92 % of control. For the same molecule, the T/C (dose: 4.4 mg/kg/injection, schedule: Q07DX004 (ip), vehicle: saline with Tween-80) was 124 % of control, the T/C (dose: 4.8 mg/kg/injection, schedule: Q01DX001 (ip), vehicle: saline with Tween-80) was 116 % of control and the T/C (dose: 5.0 mg/kg/injection, schedule: Q01DX006 (ip), vehicle: saline with Tween-80) was 90 % of control. The T/C (dose: 5.0 mg/kg/injection, schedule: Q09DX002 (ip), vehicle: saline with Tween-80) was 101 % of control, the T/C (dose: 5.0 mg/kg/injection, schedule: Q10DX002 (ip), vehicle: saline with Tween-80) was 94 % of control and the T/C (dose: 6.25 mg/kg/injection, schedule: Q07DX003 (ip), vehicle: saline) was 106 % of control and 118 % of control. The T/C (dose: 6.7 mg/kg/injection, schedule: Q07DX004 (ip), vehicle: saline with Tween-80) was 118 % of control, the T/C (dose: 7.5 mg/kg/injection, schedule: Q01DX006 (ip), vehicle: saline with Tween-80) was 120 % of control and the T/C (dose: 7.5 mg/kg/injection, schedule: Q09DX002 (ip), vehicle: saline with Tween-80) was 101 % of control. For the same molecule, the T/C (dose: 8.0 mg/kg/injection, schedule: Q09DX002 (ip), vehicle: saline with Tween-80) was 86 % of control, the T/C (dose: 10.0 mg/kg/injection, schedule: Q01DX006 (ip), vehicle: saline with Tween-80) was 112 % of control and the T/C (dose: 10.0 mg/kg/injection, schedule: Q04DX003 (ip), vehicle: saline with Tween-80) was 66 % of control. The T/C (dose: 10.0 mg/kg/injection, schedule: Q04DX004 (ip), vehicle: Klucel (hydroxypropylcellulose) (HPC)) was 86 % of control, the T/C (dose: 10.0 mg/kg/injection, schedule: Q07DX004 (ip), vehicle: saline with Tween-80) was 107 % of control and the T/C (dose: 10.0 mg/kg/injection, schedule: Q09DX002 (ip), vehicle: saline with Tween-80) was 107 % of control (2×) and 117 % of control. The T/C (dose: 10.0 mg/kg/injection, schedule: Q10DX002 (ip), vehicle: saline with Tween-80) was 116 % of control, the T/C (dose: 11.0 mg/kg/injection, schedule: Q01DX001 (ip), vehicle: saline with Tween-80) was 106 % of control and the T/C (dose: 12.0 mg/kg/injection, schedule: Q01DX001 (ip), vehicle: saline) was 103 % of control. For the same molecule, the T/C (dose: 13.5 mg/kg/injection, schedule: Q10DX002 (ip), vehicle: saline with Tween-80) was 104 % of control, the T/C (dose: 15.0 mg/kg/injection, schedule: Q04DX004 (ip), vehicle: Klucel (hydroxypropylcellulose) (HPC)) was 94 % of control and the T/C (dose: 15.0 mg/kg/injection, schedule: Q14DX003 (ip), vehicle: saline with Tween-80) was 109 % of control. For the same molecule, the T/C (dose: 16.0 mg/kg/injection, schedule: Q01DX001 (ip), vehicle: saline with Tween-80) was 111 % of control, the T/C (dose: 16.0 mg/kg/injection, schedule: Q09DX002 (ip), vehicle: saline with Tween-80) was 86 % of control and the T/C (dose: 20.0 mg/kg/injection, schedule: Q04DX004 (ip), vehicle: Klucel (hydroxypropylcellulose) (HPC)) was 86 % of control. For the same molecule, the T/C (dose: 25.0 mg/kg/injection, schedule: Q07DX003 (ip), vehicle: saline) was 118 % of control and 121 % of control, the T/C (dose: 27.0 mg/kg/injection, schedule: Q10DX002 (ip), vehicle: saline with Tween-80) was 116 % of control and the T/C (dose: 32.0 mg/kg/injection, schedule: Q09DX002 (ip), vehicle: saline with Tween-80) was 80 % of control. The T/C (dose: 36.0 mg/kg/injection, schedule: Q01DX001 (ip), vehicle: saline with Tween-80) was 116 % of control, the T/C (dose: 36.0 mg/kg/injection, schedule: Q01DX001 (ip), vehicle: saline) was 262 % of control and the T/C (dose: 45.0 mg/kg/injection, schedule: Q10DX002 (ip), vehicle: saline with Tween-80) was 103 % of control. The T/C (dose: 48.0 mg/kg/injection, schedule: Q01DX001 (ip), vehicle: saline) was 100 % of control and 117 % of control and the T/C (dose: 54.0 mg/kg/injection, schedule: Q10DX002 (ip), vehicle: saline with Tween-80) was 55 % of control.

For `CC1(C)N=C(N)N=C(N)N1c1cc(Cl)c(Cl)cc1Cl`, the T/C (dose: 25.0 mg/kg/injection, schedule: Q01DX001 (ip), vehicle: Klucel (hydroxypropylcellulose) (HPC)) was 106 % of control, the T/C (dose: 35.0 mg/kg/injection, schedule: Q01DX001 (ip), vehicle: Klucel (hydroxypropylcellulose) (HPC)) was 100 % of control and the T/C (dose: 50.0 mg/kg/injection, schedule: Q01DX001 (ip), vehicle: Klucel (hydroxypropylcellulose) (HPC)) was 106 % of control.
